| melting point [°C] | Structure (SMILES) |
| --- | --- |
| 199 to 201 | N#Cc1cc(Br)cc(S(N)(=O)=O)c1 |
| 133 to 135 | CCOC(=O)c1c(C)noc1N |
| 131 to 133 | Oc1cccc(-n2cccn2)c1 |
| 188 to 190 | CC1CCc2c(sc(N)c2C(N)=O)C1 (stereo unspecified) |
| 30 to 32 | CCC(C)n1nccc1N (stereo unspecified) |
| 195 to 197 | Clc1ncnc2[nH]ccc12 |
| 149 to 151 | N#CCC(=O)c1cccc([N+](=O)[O-])c1 |
| 125 to 135 | O=C(O)CN1CCCC1=O |
| 258 to 260 | O=c1[nH]cnc2c1CCCN2 |
| 63 to 65 | CCOCCCNc1nnc(S)s1 |
| 138 to 140 | Fc1ccc(-c2nnc(CCl)o2)cc1 |
| 128 to 130 | NCc1cccc(NC(=O)N2CCCC2)c1 |
| 71 to 73 | CC(NC(=O)CCl)c1ccc(F)cc1 (stereo unspecified) |
| 176 to 178 | COC(=O)c1cn(CC(=O)O)nn1 |
| 220 to 222 | O=C(O)c1ccnc(Br)c1[N+](=O)[O-] |
| 147 to 149 | Cc1ccsc1-c1nnc(N)o1 |
| 254 to 256 | COCCNS(=O)(=O)c1ccc(C(=O)O)cc1 |
| 236 to 238 | O=C(O)c1cc2c(s1)-c1ccccc1OC2 |
| 72 to 74 | O=C1C(Br)CCCN1c1ccc(OC(F)F)cc1 (stereo unspecified) |
| 73 to 75 | Fc1ccc(-n2nccc2Br)cc1 |
| 162 to 164 | O=C(O)CNC(=O)NC1CCCCC1 |
| 225 to 227 | CN1C(=O)CCC(C(=O)O)C1c1cnn(C)c1 (stereo unspecified) |
| 85 to 87 | Cc1cc(C)n(-c2ccc(C(F)(F)F)cc2N)n1 |
| 180 to 182 | O=C(O)CNC(=O)c1ccc(F)c(F)c1 |

| melting point [°C] | Structure (SMILES) |
| --- | --- |
| 140 to 144 | O=C(O)C1CC(=O)N(Cc2ccccc2)C1 (stereo unspecified) |
| 150 to 152 | CN1CCC(CC(=O)O)CC1 |
| 296 to 298 | CSc1nccn1-c1ccc(C(=O)O)cc1 |
| 55 to 57 | Cc1ccc(NS(=O)(=O)c2cc(C(=O)O)ccc2C)cc1 |
| 103 to 105 | COc1ccc(CNC(=O)CCl)cc1 |
| 125 to 127 | Cn1c(-c2ccccc2)c(C=O)c2ccccc21 |
| 54 to 56 | O=C(O)C=CC1CCCCC1 |
| 147 to 149 | Cc1ccc(CNC(=S)Nc2ccccc2)cc1 |
| 169 to 171 | CC1(c2ccc(C(F)(F)F)cc2)NC(=O)NC1=O (stereo unspecified) |
| 149 to 151 | Cc1cccc2c(CCC(=O)O)c[nH]c12 |
| 88 to 90 | CCOc1ccc(C2(O)CCCC2)cc1 |
| 149 to 151 | CCOc1cccc2c1C(=O)NC2=O |
| 127 to 129 | CCOc1ccc(Cl)c(C(=O)O)n1 |
| 125 to 127 | CC(C)n1ncc(C(=O)O)c1C(F)(F)F |
| 131 to 133 | COc1ccc(N)cc1S(=O)(=O)N1CCOCC1 |
| 86 to 88 | NCc1ccccc1CN1CCN(c2ccccc2)CC1 |
| 256 to 258 | CCCn1cnc2c1c(=O)[nH]c(=O)n2C |
| 133 to 135 | O=C(O)CC(O)(c1ccccc1)C(F)(F)F (stereo unspecified) |
| 62 to 64 | O=C(OCc1ccccc1)N1CCC(S(=O)(=O)Cl)CC1 |
| 125 to 135 | COC(=O)C(=O)CC(=O)c1ccc(F)cc1 |
| 110 to 112 | Cc1noc2ncc(S(=O)(=O)Cl)cc12 |
| 308 to 310 | NS(=O)(=O)c1cccc(NC(=O)c2ccc(C(=O)O)s2)c1 |
| 109 to 111 | Nc1ccc(N2CCSCC2)cc1 |
| 112 to 116 | Cc1cc(-c2csc(N)n2)c(C)n1CC1CCCO1 (stereo unspecified) |

| melting point [°C] | Structure (SMILES) |
| --- | --- |
| 233 to 235 | O=C(O)C1=Cc2cccc(O)c2OC1 |
| 138 to 140 | COC(=O)c1ccc(CS(N)(=O)=O)cc1 |
| 191 to 193 | Nc1cc(-c2ccc(Cl)cc2)nn1-c1ccccc1 |
| 73 to 75 | COc1ccc(N2CCN(C(=O)CCCl)CC2)cc1 |
| 38 to 40 | NCc1ccc2c(c1)CCO2 |
| 109 to 111 | CCCN1C(=O)NC(C)(C)C1=O |
| 169 to 171 | CC(C)(C)OC(=O)NC1CCC(O)CC1 (stereo unspecified) |
| 70 to 72 | N#CCc1ccc(Oc2ncccn2)cc1 |
| 83 to 85 | CSC(C(=O)O)C(C)(C)C (stereo unspecified) |
| 314 to 316 | O=C(O)c1ccc(-n2ncc(Cl)c(Cl)c2=O)cc1 |
| 86 to 88 | Ic1ccc2ncccc2c1 |
| 156 to 158 | O=C(O)CCc1cscn1 |
| 172 to 174 | COC(=O)COc1ccc(C(=O)O)cc1 |
| 189 to 191 | COc1ccc(C(=O)O)nc1I |
| 81 to 83 | O=C(O)Cc1ccc(S(=O)(=O)N2CCCCC2)s1 |
| 257 to 259 | COc1cc(OC)c(S(N)(=O)=O)cc1Br |
| 147 to 149 | Nc1ccc(F)c(NC(=O)c2ccccc2I)c1 |
| 99 to 101 | CCCCc1ccnc(N)n1 |
| 111 to 113 | O=C1NCCNC1c1cccs1 (stereo unspecified) |
| 57 to 59 | O=Cc1ccccc1OCc1cccnc1 |
| 144 to 146 | CC(C)n1ncc2ccc(N)cc21 |
| 157 to 159 | O=C(O)c1ccc(OCC(=O)C2CC2)cc1 |
| 78 to 80 | C=CCNC(=O)c1ccc(N)cc1 |
| 114 to 116 | CS(=O)(=O)Nc1ccc(N)cc1 |

| melting point [°C] | Structure (SMILES) |
| --- | --- |
| 97 to 99 | COc1cc(-c2nnc(S)o2)cc(OC)c1OC |
| 99 to 101 | CC(C)(C)c1cc(N)c(C#N)s1 |
| 74 to 76 | COC(=O)C=Cc1ccc(C(F)(F)F)cc1 |
| 229 to 231 | O=C(O)c1nnc(S)[nH]c1=O |
| 198 to 202 | Cc1cc(C(=O)O)c(C)n1Cc1ccc(S(N)(=O)=O)cc1 |
| 96 to 98 | CNS(=O)(=O)c1cccc(C(C)=O)c1 |
| 199 to 201 | CCOC(=O)c1cnc(C)c(C(=O)O)c1 |
| 96 to 98 | O=S(=O)(Cl)c1cnc(Cl)nc1Cl |
| 238 to 240 | CC1=C(C(=O)Nc2ccccc2)C2(CCCCC2)C(C#N)=C(S)N1 |
| 259 to 261 | NC(Cc1c[nH]c2ccc([N+](=O)[O-])cc12)C(=O)O (stereo unspecified) |
| 205 to 207 | CCN(C(C)=O)C(C(=O)O)c1ccc(F)c(F)c1 (stereo unspecified) |
| 139 to 141 | CC(C)(C)c1cc(NC(=O)CBr)on1 |
| 175 to 177 | NCC1(O)CCS(=O)(=O)CC1 |
| 163 to 165 | O=C(O)c1cc(I)c(F)cc1F |
| 159 to 163 | O=C(O)C=Cc1ccc(OC(F)(F)C(F)C(F)(F)F)cc1 (stereo unspecified) |
| 196 to 198 | O=C(O)c1cccnc1C1CC1 |
| 213 to 215 | Cn1cc(-c2cccc(C(=O)O)c2)cn1 |
| 179 to 181 | O=C(O)c1ccn(-c2ccc(Cl)cc2Cl)n1 |
| 190 to 192 | NN1C(=O)CNC1=O |
| 169 to 171 | O=C(NCCO)c1ccn[nH]1 |
| 169 to 171 | O=C(O)CCC1NC(=O)NC1=O (stereo unspecified) |
| 206 to 208 | CNC(=CC(=O)c1ccccc1C)NC |
| 209 to 211 | CC(C)c1nn(C)c2sc(C(=O)O)cc12 |
| 108 to 110 | Cc1ccc(CO)cc1N |

| melting point [°C] | Structure (SMILES) |
| --- | --- |
| 73 to 75 | COC(=O)c1cc(F)cc(S(=O)(=O)Cl)c1Br |
| 255 to 257 | Cc1cc(C(=O)O)ccc1S(N)(=O)=O |
| 335 to 337 | O=C(O)c1cc(/C=C/c2cccnc2)nc2ccc(Br)cc12 |
| 74 to 76 | NCC(O)COCc1ccccc1 (stereo unspecified) |
| 94 to 96 | CC(C#N)CSc1ccccc1NC(=O)CCl (stereo unspecified) |
| 105 to 117 | CCOC(=O)c1noc(N)c1-c1ccccc1 |
| 143 to 145 | CCCCC(NC(=O)C(C)NC(C)=O)C(=O)O (stereo unspecified) |
| 201 to 203 | COc1ccc(Cl)cc1-c1nnc(N)o1 |
| 269 to 271 | NC(=O)c1cncc(C(=O)O)c1 |
| 105 to 107 | O=[N+]([O-])c1ccccc1-c1cn[nH]c1 |
| 125 to 127 | O=C(O)CCNC(=O)C1CCCCC1 |
| 68 to 70 | c1ccc(CCNc2nccs2)cc1 |
| 117 to 119 | NNC(=O)C(=O)N1CCCC1 |
| 157 to 159 | COC(=O)c1sc2cccc(F)c2c1CBr |
| 105 to 107 | O=C(O)CCNC(=O)C1CCC1 |
| 151 to 153 | O=C(NC1CC1)c1ccc(Br)cc1 |
| 104 to 106 | CC(C)Cc1nc(C(=O)O)cs1 |
| 150 to 152 | COC(=O)C1CC(O)CN1C(=O)c1ccc(F)cc1 (stereo unspecified) |
| 225 to 227 | O=C(O)c1cccc2c3c([nH]c12)CCCCC3 |
| 99 to 101 | CCN(CC)c1ccc(S(=O)(=O)N2CCOCC2)cc1N |
| 219 to 221 | Cc1ccc(-c2csc(=O)[nH]2)cc1 |
| 117 to 119 | Nc1cccc(-c2ccc3c(c2)OCCO3)n1 |
| 129 to 131 | O=C(O)C(Oc1ccc(Br)cc1Br)c1ccccc1 (stereo unspecified) |
| 149 to 151 | C#CCNS(=O)(=O)c1ccc(C(=O)O)cc1 |

| melting point [°C] | Structure (SMILES) |
| --- | --- |
| 53 to 55 | COC(=O)c1c(N)cccc1F |
| 129 to 131 | CNS(=O)(=O)c1cccc(CN)c1 |
| 84 to 86 | Cc1ccc(CCC(=O)O)cc1Cl |
| 199 to 201 | Cc1ccncc1C(=O)O |
| 182 to 184 | O=C(O)c1cc(Cl)c[nH]1 |
| 217 to 219 | O=C(O)c1cc(S(=O)(=O)Nc2ccc(Br)cc2)ccc1Cl |
| 166 to 168 | O=C(O)Cc1cc2c(ccc3ccccc32)o1 |
| 213 to 215 | O=C(Nc1nncs1)OCC(F)(F)F |
| 74 to 76 | O=Cc1ccc(-c2ccc(Cl)c(C(F)(F)F)c2)o1 |
| 39 to 41 | CC(C)c1nc(N)no1 |
| 269 to 271 | CNC1=NS(=O)(=O)c2ccccc21 |
| 47 to 49 | COc1ccc(Oc2ccc(Cl)cc2N)cc1 |
| 150 to 152 | ON=Cc1ccncn1 |
| 215 to 217 | COc1ccc(NC(=O)Nc2ccc(OC)nc2)cn1 |
| 105 to 107 | Clc1nnc(-c2ccccn2)s1 |
| 149 to 151 | NC(=O)Nc1cccc(F)c1C(=O)O |
| 171 to 173 | O=C(O)c1nn(-c2ccccc2)c2c1CCCCC2 |
| 209 to 211 | O=c1[nH]c(CCl)nc2cc(C(F)(F)F)ccc12 |
| 123 to 125 | Cc1nc2ccccn2c1I |
| 225 to 227 | O=C(O)C1CCN(c2ccc(S(=O)(=O)N3CCOCC3)cc2[N+](=O)[O-])CC1 |
| 145 to 147 | CC(=O)Nc1ccc(S(=O)(=O)N2CCC(=O)CC2)cc1 |

| Structure (SMILES) | melting point [°C] |
| --- | --- |
| C=CCNC(=O)NC(=O)C(C)Cl (stereo unspecified) | 68 to 70 |
| CSc1nc(CCl)cc(=O)[nH]1 | 176 to 178 |
| COc1cc(C=O)cc2c1OCO2 | 130 to 134 |
| O=C(O)C1(Br)CCCCC1 | 57 to 59 |
| CCOC(=O)c1c(C)n(C2CCCC2)c2ccc(O)cc12 | 228 to 230 |

Source: a melting point compilation (Tetko et al.)
